{"source": "patent US11498899B2", "about": "“Nitrone herbicides” (FMC Corporation, priority 2016, dated 2022)", "key": {"[1]": {"tested_on": "barnyardgrass (Echinochloa crus-galli)", "assay": "Test A preemergence, visual injury rating 0-100 (0 no effect, 100 complete control)", "assay_type": "in vivo"}, "[2]": {"tested_on": "foxtail, giant (giant foxtail, Setaria faberii)", "assay": "Test A preemergence, visual injury rating 0-100", "assay_type": "in vivo"}, "kochia (Kochia scoparia) [3]": {"tested_on": "kochia (Kochia scoparia)", "assay": "Test A preemergence, visual injury rating 0-100", "assay_type": "in vivo"}, "[4]": {"tested_on": "pigweed (Amaranthus retroflexus)", "assay": "Test A preemergence, visual injury rating 0-100", "assay_type": "in vivo"}, "[5]": {"tested_on": "ragweed (common ragweed, Ambrosia elatior)", "assay": "Test A preemergence, visual injury rating 0-100", "assay_type": "in vivo"}, "[6]": {"tested_on": "ryegrass, Italian (Italian ryegrass, Lolium multiflorum)", "assay": "Test A preemergence, visual injury rating 0-100", "assay_type": "in vivo"}, "[7]": {"tested_on": "barnyardgrass (Echinochloa crus-galli)", "assay": "Test A postemergence, visual injury rating 0-100", "assay_type": "in vivo", "details": "0 to 100 scale"}, "[8]": {"tested_on": "blackgrass (Alopecurus myosuroides)", "assay": "Test A postemergence, visual injury rating 0-100", "assay_type": "in vivo", "details": "0 to 100 scale"}, "corn (Zea mays)": {"tested_on": "corn (Zea mays)", "assay": "Test A postemergence, visual injury rating 0-100", "assay_type": "in vivo", "details": "0 to 100 scale"}, "[9]": {"tested_on": "foxtail, giant (giant foxtail, Setaria faberii)", "assay": "Test A postemergence, visual injury rating 0-100", "assay_type": "in vivo", "details": "0 to 100 scale"}, "[10]": {"tested_on": "galium (catchweed bedstraw, Galium aparine)", "assay": "Test A postemergence, visual injury rating 0-100", "assay_type": "in vivo", "details": "0 to 100 scale"}, "kochia (Kochia scoparia) [11]": {"tested_on": "kochia (Kochia scoparia)", "assay": "Test A postemergence, visual injury rating 0-100", "assay_type": "in vivo", "details": "0 to 100 scale"}, "[12]": {"tested_on": "pigweed (Amaranthus retroflexus)", "assay": "Test A postemergence, visual injury rating 0-100", "assay_type": "in vivo", "details": "0 to 100 scale"}, "[13]": {"tested_on": "ragweed (common ragweed, Ambrosia elatior)", "assay": "Test A postemergence, visual injury rating 0-100", "assay_type": "in vivo", "details": "0 to 100 scale"}, "[14]": {"tested_on": "ryegrass, Italian (Italian ryegrass, Lolium multiflorum)", "assay": "Test A postemergence, visual injury rating 0-100", "assay_type": "in vivo", "details": "0 to 100 scale"}, "[15]": {"tested_on": "wheat (Triticum aestivum)", "assay": "Test A postemergence, visual injury rating 0-100", "assay_type": "in vivo", "details": "0 to 100 scale"}, "[16]": {"tested_on": "ducksalad (Heteranthera limosa)", "assay": "Test B flooded paddy test, visual rating 0-100", "details": "Flood, 250 g ai/ha, applied to paddy water, rated after 13 to 15 days"}, "[17]": {"tested_on": "barnyardgrass (Echinochloa crus-galli)", "assay": "Test B flooded paddy test, visual rating 0-100", "details": "Flood, 250 g ai/ha, applied to paddy water, rated after 13 to 15 days"}, "rice (Oryza sativa)": {"tested_on": "rice (Oryza sativa)", "assay": "Test B flooded paddy test, visual rating 0-100 (0 no effect, 100 complete control)", "details": "Flood, 250 g ai/ha, applied to paddy water, rated after 13 to 15 days"}}}
{"smiles": "CC1=[N+]([O-])C(C(=O)Nc2cccc(F)c2F)C(c2ccc(F)c(C(F)(F)F)c2)C1", "note": "(racemic) [Compound 64]", "values": [{"measurement": "Barnyardgrass plant response rating (0 to 100 scale)", "setting": "[1]; 125 g ai/ha", "result": 90}, {"measurement": "Barnyardgrass plant response rating (0 to 100 scale)", "setting": "[1]; 500 g ai/ha", "result": 90}, {"measurement": "Foxtail, Giant plant response rating (0 to 100 scale)", "setting": "[2]; 125 g ai/ha", "result": 90}, {"measurement": "Foxtail, Giant plant response rating (0 to 100 scale)", "setting": "[2]; 500 g ai/ha", "result": 90}, {"measurement": "Kochia plant response rating (0 to 100 scale)", "setting": "kochia (Kochia scoparia) [3]; 125 g ai/ha", "result": 20}, {"measurement": "Kochia plant response rating (0 to 100 scale)", "setting": "kochia (Kochia scoparia) [3]; 500 g ai/ha", "result": 80}, {"measurement": "Pigweed plant response rating (0 to 100 scale)", "setting": "[4]; 125 g ai/ha", "result": 50}, {"measurement": "Pigweed plant response rating (0 to 100 scale)", "setting": "[4]; 500 g ai/ha", "result": 80}, {"measurement": "Ragweed plant response rating (0 to 100 scale)", "setting": "[5]; 125 g ai/ha", "result": 0}, {"measurement": "Ragweed plant response rating (0 to 100 scale)", "setting": "[5]; 500 g ai/ha", "result": 70}, {"measurement": "Ryegrass, Italian plant response rating (0 to 100 scale)", "setting": "[6]; 125 g ai/ha", "result": 90}, {"measurement": "Ryegrass, Italian plant response rating (0 to 100 scale)", "setting": "[6]; 500 g ai/ha", "result": 90}, {"measurement": "Barnyardgrass plant response rating", "setting": "[7]; 125 g ai/ha", "result": 70}, {"measurement": "Barnyardgrass plant response rating", "setting": "[7]; 500 g ai/ha", "result": 90}, {"measurement": "Blackgrass plant response rating", "setting": "[8]; 125 g ai/ha", "result": 80}, {"measurement": "Blackgrass plant response rating", "setting": "[8]; 500 g ai/ha", "result": 80}, {"measurement": "Corn plant response rating", "setting": "corn (Zea mays); 125 g ai/ha", "result": 90}, {"measurement": "Corn plant response rating", "setting": "corn (Zea mays); 500 g ai/ha", "result": 90}, {"measurement": "Foxtail, Giant plant response rating", "setting": "[9]; 125 g ai/ha", "result": 70}, {"measurement": "Foxtail, Giant plant response rating", "setting": "[9]; 500 g ai/ha", "result": 90}, {"measurement": "Galium plant response rating", "setting": "[10]; 125 g ai/ha", "result": 40}, {"measurement": "Galium plant response rating", "setting": "[10]; 500 g ai/ha", "result": 70}, {"measurement": "Kochia plant response rating", "setting": "kochia (Kochia scoparia) [11]; 125 g ai/ha", "result": 0}, {"measurement": "Kochia plant response rating", "setting": "kochia (Kochia scoparia) [11]; 500 g ai/ha", "result": 30}, {"measurement": "Pigweed plant response rating", "setting": "[12]; 125 g ai/ha", "result": 0}, {"measurement": "Pigweed plant response rating", "setting": "[12]; 500 g ai/ha", "result": 50}, {"measurement": "Ragweed plant response rating", "setting": "[13]; 125 g ai/ha", "result": 10}, {"measurement": "Ragweed plant response rating", "setting": "[13]; 500 g ai/ha", "result": 40}, {"measurement": "Ryegrass, Italian plant response rating", "setting": "[14]; 125 g ai/ha", "result": 70}, {"measurement": "Ryegrass, Italian plant response rating", "setting": "[14]; 500 g ai/ha", "result": 80}, {"measurement": "Wheat plant response rating", "setting": "[15]; 125 g ai/ha", "result": 70}, {"measurement": "Wheat plant response rating", "setting": "[15]; 500 g ai/ha", "result": 90}, {"measurement": "Ducksalad plant response rating (0 to 100 scale)", "setting": "[16]", "result": 70}, {"measurement": "Barnyardgrass plant response rating (0 to 100 scale)", "setting": "[17]", "result": 60}, {"measurement": "Rice plant response rating (0 to 100 scale)", "setting": "rice (Oryza sativa)", "result": 0}]}
{"smiles": "CC1=[N+]([O-])C(C(=O)Nc2cccc(F)c2F)C(c2cccc(Br)n2)C1", "note": "(racemic) [Compound 65]", "values": [{"measurement": "Barnyardgrass plant response rating (0 to 100 scale)", "setting": "[1]; 125 g ai/ha", "result": 0}, {"measurement": "Barnyardgrass plant response rating (0 to 100 scale)", "setting": "[1]; 500 g ai/ha", "result": 90}, {"measurement": "Foxtail, Giant plant response rating (0 to 100 scale)", "setting": "[2]; 125 g ai/ha", "result": 0}, {"measurement": "Foxtail, Giant plant response rating (0 to 100 scale)", "setting": "[2]; 500 g ai/ha", "result": 90}, {"measurement": "Kochia plant response rating (0 to 100 scale)", "setting": "kochia (Kochia scoparia) [3]; 125 g ai/ha", "result": 0}, {"measurement": "Kochia plant response rating (0 to 100 scale)", "setting": "kochia (Kochia scoparia) [3]; 500 g ai/ha", "result": 0}, {"measurement": "Pigweed plant response rating (0 to 100 scale)", "setting": "[4]; 125 g ai/ha", "result": 0}, {"measurement": "Pigweed plant response rating (0 to 100 scale)", "setting": "[4]; 500 g ai/ha", "result": 0}, {"measurement": "Ragweed plant response rating (0 to 100 scale)", "setting": "[5]; 125 g ai/ha", "result": 0}, {"measurement": "Ragweed plant response rating (0 to 100 scale)", "setting": "[5]; 500 g ai/ha", "result": 0}, {"measurement": "Ryegrass, Italian plant response rating (0 to 100 scale)", "setting": "[6]; 125 g ai/ha", "result": 0}, {"measurement": "Ryegrass, Italian plant response rating (0 to 100 scale)", "setting": "[6]; 500 g ai/ha", "result": 100}, {"measurement": "Barnyardgrass plant response rating", "setting": "[7]; 125 g ai/ha", "result": 0}, {"measurement": "Barnyardgrass plant response rating", "setting": "[7]; 500 g ai/ha", "result": 0}, {"measurement": "Blackgrass plant response rating", "setting": "[8]; 125 g ai/ha", "result": 0}, {"measurement": "Blackgrass plant response rating", "setting": "[8]; 500 g ai/ha", "result": 0}, {"measurement": "Corn plant response rating", "setting": "corn (Zea mays); 125 g ai/ha", "result": 0}, {"measurement": "Corn plant response rating", "setting": "corn (Zea mays); 500 g ai/ha", "result": 0}, {"measurement": "Foxtail, Giant plant response rating", "setting": "[9]; 125 g ai/ha", "result": 0}, {"measurement": "Foxtail, Giant plant response rating", "setting": "[9]; 500 g ai/ha", "result": 20}, {"measurement": "Galium plant response rating", "setting": "[10]; 125 g ai/ha", "result": 0}, {"measurement": "Galium plant response rating", "setting": "[10]; 500 g ai/ha", "result": 30}, {"measurement": "Kochia plant response rating", "setting": "kochia (Kochia scoparia) [11]; 125 g ai/ha", "result": 0}, {"measurement": "Kochia plant response rating", "setting": "kochia (Kochia scoparia) [11]; 500 g ai/ha", "result": 0}, {"measurement": "Pigweed plant response rating", "setting": "[12]; 125 g ai/ha", "result": 0}, {"measurement": "Pigweed plant response rating", "setting": "[12]; 500 g ai/ha", "result": 0}, {"measurement": "Ragweed plant response rating", "setting": "[13]; 125 g ai/ha", "result": 0}, {"measurement": "Ragweed plant response rating", "setting": "[13]; 500 g ai/ha", "result": 0}, {"measurement": "Ryegrass, Italian plant response rating", "setting": "[14]; 125 g ai/ha", "result": 0}, {"measurement": "Ryegrass, Italian plant response rating", "setting": "[14]; 500 g ai/ha", "result": 0}, {"measurement": "Wheat plant response rating", "setting": "[15]; 125 g ai/ha", "result": 0}, {"measurement": "Wheat plant response rating", "setting": "[15]; 500 g ai/ha", "result": 10}, {"measurement": "Ducksalad plant response rating (0 to 100 scale)", "setting": "[16]", "result": 60}, {"measurement": "Barnyardgrass plant response rating (0 to 100 scale)", "setting": "[17]", "result": 15}, {"measurement": "Rice plant response rating (0 to 100 scale)", "setting": "rice (Oryza sativa)", "result": 10}]}
